In data set [1] the test system is H2O2-induced HUVECs. As to the kind of experiment: GSH-Px activity in H2O2-induced HUVECs (assay kit). To be noted: 200 μM pretreatment, 300 μM H2O2, model 26.95 ± 1.09, mean ± SD, n = 3. The class given is cell-based, human. The method, then: (§1) The HUVECs were cultured for 24 h in a 96-well plate. Subsequently, the supernatant was aspirated and 20 μL of GSH (200 μM) and ACEi peptides (100 or 200 μM) were added in the protection groups, respectively. After 24 h, ACEi peptides were removed and H2O2 with the final concentration of 300 μM was added into the damage and protection groups for incubating 24 h.
(§2) The level of ROS was determined using DCFH2-DA assay and expressed as % control ([50]). The levels of SOD (U/mgprot), GSH-Px (U/mgprot), NO (μmol/L), and MDA (nmol/mgprot) were measured using assay kits according to manufacturer’ protocols.

Data set [2] concerns H2O2-induced HUVECs. As to the kind of experiment: ROS level in H2O2-induced HUVECs, DCFH2-DA assay. The class given is cell-based, human. The settings on record: 200 μM pretreatment, 300 μM H2O2, model 146.6 ± 3.81%, mean ± SD, n = 3. The protocol:
as §1, §2

Data set [3] deals with HUVECs. Kind of data set: NO production in HUVECs (assay kit). Type of data set: cell-based, human. To be noted: for NO content in NE-treated HUVECs: peptide 200 μM plus NE, NE alone 18.59 ± 0.82 μM; for NO level in HUVECs: peptide 200 μM, 24 h, control 33.68 ± 0.96 μM, mean ± SD, n = 3, SD. The protocol:
(§3) HUVECs were cultured in DMEM supplemented with 100 µg/mL streptomycin, 10% FBS (v/v), and 100 U/mL penicillin at 37°C in a humidified 5% CO2 atmosphere for 24 h.
(§4) After treating with ACEi peptides (TRP3, TRP6, TRP9, or TRP12, respectively) for 24 h, NO and ET-1 contents were separately determined by employing human NO and ET-1 assay kit as per manufactures’ protocol ([18]).

Data set [4] has as its target T1, ACE (Oryctolagus cuniculus, UniProt P12822).
T1 sequence (P12822 34-1310): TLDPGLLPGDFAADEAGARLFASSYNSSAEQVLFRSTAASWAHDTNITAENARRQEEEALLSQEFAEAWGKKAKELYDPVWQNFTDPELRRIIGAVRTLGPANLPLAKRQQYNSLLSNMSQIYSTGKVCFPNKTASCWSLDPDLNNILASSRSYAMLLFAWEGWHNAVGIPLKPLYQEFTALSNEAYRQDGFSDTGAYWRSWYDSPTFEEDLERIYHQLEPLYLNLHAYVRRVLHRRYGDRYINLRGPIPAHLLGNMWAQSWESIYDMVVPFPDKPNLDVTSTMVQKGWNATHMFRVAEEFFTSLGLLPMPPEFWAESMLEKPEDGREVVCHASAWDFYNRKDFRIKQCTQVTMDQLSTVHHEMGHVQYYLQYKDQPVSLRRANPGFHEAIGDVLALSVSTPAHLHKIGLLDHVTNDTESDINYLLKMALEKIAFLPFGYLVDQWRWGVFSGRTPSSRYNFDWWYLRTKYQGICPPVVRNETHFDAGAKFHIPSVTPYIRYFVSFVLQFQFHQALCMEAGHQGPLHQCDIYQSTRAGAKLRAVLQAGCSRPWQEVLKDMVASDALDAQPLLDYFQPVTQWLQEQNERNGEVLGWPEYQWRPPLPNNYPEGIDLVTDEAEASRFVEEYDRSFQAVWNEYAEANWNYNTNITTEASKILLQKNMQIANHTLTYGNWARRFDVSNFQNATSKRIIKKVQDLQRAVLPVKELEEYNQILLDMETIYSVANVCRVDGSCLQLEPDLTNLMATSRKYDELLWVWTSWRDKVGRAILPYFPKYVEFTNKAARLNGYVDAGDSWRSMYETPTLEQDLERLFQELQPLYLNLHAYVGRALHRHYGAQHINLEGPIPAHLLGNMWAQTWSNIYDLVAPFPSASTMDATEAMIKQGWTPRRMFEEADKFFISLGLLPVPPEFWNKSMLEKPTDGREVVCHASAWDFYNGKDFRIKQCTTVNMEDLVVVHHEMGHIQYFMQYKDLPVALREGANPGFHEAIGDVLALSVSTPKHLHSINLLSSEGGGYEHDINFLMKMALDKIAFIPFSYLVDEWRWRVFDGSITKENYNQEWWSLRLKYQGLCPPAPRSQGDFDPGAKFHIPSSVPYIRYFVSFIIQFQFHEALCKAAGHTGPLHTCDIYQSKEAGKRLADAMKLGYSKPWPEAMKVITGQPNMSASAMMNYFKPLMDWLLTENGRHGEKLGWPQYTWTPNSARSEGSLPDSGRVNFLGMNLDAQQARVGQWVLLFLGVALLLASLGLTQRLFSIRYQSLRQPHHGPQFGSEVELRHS
Kind of data set: ACE inhibitory (ACEi) activity, FAPGG substrate, hippuric acid by HPLC at 228 nm. The settings on record: at 1.5 mg/mL, mean ± SD, n = 3. Type of data set: biochemical. The protocol: The ACEi activity was measured by employing FAPGG as the substrate with the following modifications reported by Zhao et al. ([18]). In brief, the initial assay volume consisted of 50 μL of the substrate (3 mM), 50 μL of the ACE enzyme solution containing 1.25 mU of declared enzyme activity, and 50 μL of assay sample. All these solutions were incubated for 30 min at 37°C in a water bath first without mixing and then for an additional 30 min after mixing. ACE activity was stopped by 150 μL of glacial acetic acid. After that, the reaction mixture was separated by HPLC at 228 nm to determine the hippuric acid (HA) content produced due to ACE activity on the substrate. The control reaction mixture contained 50 μL of buffer instead of the assay sample and the control was expected to liberate the maximum amount of HA from the substrate due to uninhibited ACE activity. The percent inhibition of ACE activity was calculated as follows:
Inhibition activity(%)=[(HAcontrol−HAsample)/HAcontrol]×100%.
The IC50 value is the concentration of peptide inhibiting 50% activity of ACE.

Data set [5] deals with HUVECs. Kind of data set: ET-1 secretion in HUVECs (assay kit). The class given is cell-based, human. The settings on record: for ET-1 content in NE-treated HUVECs: peptide 200 μM plus NE, NE alone 73.57 ± 3.09 pg./mL; for ET-1 content in HUVECs: peptide 200 μM, control 55.37 ± 2.53 pg./mL, mean ± SD, n = 3, SD. The method, then: as §3, §4
The subject of data set [6] is H2O2-induced HUVECs. As to the kind of experiment: MDA content in H2O2-induced HUVECs (assay kit). The class given is cell-based, human. The settings on record: 200 μM pretreatment, 300 μM H2O2, model 27.94 ± 1.06, mean ± SD, n = 3. The method, then:
as §1, §2

The test system of data set [7] is H2O2-induced HUVECs. Kind of data set: Apoptosis rate of H2O2-induced HUVECs, Hoechst 33342. Type of data set: cell-based, human. The settings on record: 200 μM pretreatment, 300 μM H2O2, model 214.03 ± 7.11% control, mean ± SD, n = 3. The protocol:
as §1
Cell treatments with ACEi peptides, GSH, and H2O2 were according to the above method ([50]). The morphology of HUVECs was observed and photographed using an inverted microscope (Nikon Corporation, Kyoto, Japan). The percentage of apoptotic HUVECs was analyzed using previous methods ([17], [50]).

The subject of data set [8] is H2O2-induced HUVECs. Kind of data set: NO production in H2O2-induced HUVECs (assay kit). Type of data set: cell-based, human. To be noted: 200 μM pretreatment, 300 μM H2O2, model 15.54 ± 0.68 μM, mean ± SD, n = 3. The method, then:
as §1, §2

The subject of data set [9] is H2O2-induced HUVECs. As to the kind of experiment: SOD activity in H2O2-induced HUVECs (assay kit). Type of data set: cell-based, human. The settings on record: 200 μM pretreatment, 300 μM H2O2, model 108.57 ± 7.56, mean ± SD, n = 3. The method, then:
as §1, §2

Data set [10] has as its system H2O2-induced HUVECs. As to the kind of experiment: Viability of H2O2-induced HUVECs (oxidative damage model). The class given is cell-based, human. The settings on record: 200 μM pretreatment 24 h, then 300 μM H2O2 24 h; model group 50.31 ± 2.19%; mean ± SD, n = 3; SD. The protocol: (§5) The viability of HUVECs treated by TRP3, TRP6, TRP9, and TRP12 was determined using MTT method. HUVECs were seeded in the 96-well plates, cultured for 24 h, and treated with ACEi peptides (100, 200, and 300 μM) at 37° C for 24 h. MTT (final content of 2 mg/mL) was added into cell culture. After 4 h, DMSO was added into each well and monitored at 490 nm. The cell viability (% control) was calculated.
The oxidative damage model of HUVECs was established according to the previous method ([50]). HUVECs were seeded in the 96-well plates, cultured for 24 h, and treated with […] H2O2 at 37°C.
as §1

Data set [11] deals with HUVECs. Kind of data set: Viability of HUVECs, MTT method. The class given is cell-based, human. The method, then:
as §3, §5
(Tetrazolium dyes change colour on reduction, which living cells bring about.)

Peptide text beside a SMILES is read from it.

Consider `CC[C@H](C)[C@H](N)C(=O)N[C@@H](CCCCN)C(=O)N[C@@H](CO)C(=O)N[C@@H](Cc1c[nH]c2ccccc12)C(=O)O` [TRP6, Ile-Lys-Ser-Trp] (H-IKSW-OH; N-terminus and C-terminus assumed), for which, in [1], the GSH-Px activity was determined as 42.35 ± 1.86 U/mg prot. Further, the ROS level in data set [2] stood at 127.5 ± 4.32 % control. Besides, in data set [3], the “NO content in NE-treated HUVECs” value turned out to be 26.51 ± 1.06 µM and the “NO level in HUVECs” value was determined as 46.25 ± 1.39 µM. The “ACEi rate (ACEi activity)” value in data set [4] is on record as 75.41 ± 2.56%. Further, in data set [5], the “ET-1 content in NE-treated HUVECs” value was found to be 55.27 ± 2.19 pg/mL and the “ET-1 content in HUVECs” value amounted to 44.68 ± 1.69 pg/mL. In [6], the MDA content is 20.52 ± 0.92 nmol/mg prot. Also, the total apoptosis ratio in [7] came to 171.21 ± 6.92 % control. Also, the NO content in data set [8] is 21.26 ± 0.59 µM. Moreover, the SOD activity in data set [9] amounted to 160.02 ± 9.04 U/mg prot.
For `CSCC[C@H](NC(=O)[C@H](Cc1c[nH]cn1)NC(=O)[C@H](CO)NC(=O)[C@@H](N)Cc1ccc(O)cc1)C(=O)O` [TRP9, Tyr-Ser-His-Met] (H-YSHM-OH), in data set [1], the GSH-Px activity was determined as 45.36 ± 2.07 U/mg prot. Besides, in data set [2], the ROS level was 122.4 ± 4.47 % control. For the same compound, in data set [3], the “NO content in NE-treated HUVECs” value was found to be 28.79 ± 0.78 µM and the “NO level in HUVECs” value was 50.34 ± 1.45 µM. In addition, the “ACEi rate (ACEi activity)” value in data set [4] is given as 83.49 ± 3.42%. Also, the “cell viability of H2O2-induced HUVECs” value in data set [10] is reported as 67.85 ± 3.05%. In data set [5], the “ET-1 content in NE-treated HUVECs” value came out at 53.27 ± 2.34 pg/mL and the “ET-1 content in HUVECs” value came out at 41.26 ± 2.09 pg/mL. For the same compound, in [6], the MDA content amounted to 19.88 ± 0.75 nmol/mg prot. Further, the cell viability in data set [11] (300 μM, 24 h, MTT, % control, mean ± SD, n = 3) came to 91.27 ± 4.05%. For the same compound, the total apoptosis ratio in [7] amounted to 135.37 ± 4.28 % control. In data set [8], the NO content was determined as 23.64 ± 0.82 µM.
For the compound H-WGESF-OH [TRP3, Trp-Gly-Glu-Ser-Phe], the GSH-Px activity in data set [1] amounted to 38.46 ± 1.25 U/mg prot. Moreover, the ROS level in data set [2] worked out at 128.7 ± 5.2 % control. In data set [3], the “NO content in NE-treated HUVECs” value amounted to 23.69 ± 1.18 µM and the “NO level in HUVECs” value was 46.52 ± 1.29 µM. The “ACEi rate (ACEi activity)” value in data set [4] came out at 69.54 ± 3.09%. Also, in data set [5], the “ET-1 content in NE-treated HUVECs” value was found to be 59.74 ± 2.42 pg/mL and the “ET-1 content in HUVECs” value worked out at 46.87 ± 2.03 pg/mL. Besides, in data set [6], the MDA content is given as 21.76 ± 0.94 nmol/mg prot. The compound further displayed a cell viability in data set [11] (300 µM, SD) of 86.72 ± 4.45%. In addition, the total apoptosis ratio in data set [7] stood at 173.12 ± 5.11 % control. The NO content in [8] was found to be 20.38 ± 0.67 µM. In addition, the SOD activity in data set [9] was 154.58 ± 3.94 U/mg prot.

Broadly, the cell viability is a read-out of living cells in per cent, often relative to untreated cells. Low values mean more harm to the cells, high ones less harm to the cells.

These data come from PMC10369073, “Production, identification, in silico analysis, and cytoprotection on H2O2-induced HUVECs of novel angiotensin-I-converting enzyme inhibitory peptides from Skipjack tuna roes” (Frontiers in Nutrition, 2023).
